Measured values as given in patent US4789736A, “Complexes of technetium-99m with propylene amine oximes” (Amersham International plc, priority 1985, dated 1988).
Read-outs that look alike come from different tables or passages of the source.

Legend:
[1] = Clinical comparison of dl and meso diastereoisomers of Compound 1, whole body scanning (Example 25a); assay type: in vivo, normal volunteer subjects (human); details: 20 minutes p.i.; mean; human
Description: All clinical studies, involving comparisons between the Tc-99m complexes of dl and meso, and d,l and dl stereoisomers of Compound 1 were conducted in normal volunteer subjects at Aberdeen Royal Infirmary.
(a) Comparison of dl and meso diastereoisomers of Compound 1
Data is then taken from area of interest studies employing a whole body scanning device.

[2] = Clinical comparison of d, l and dl stereoisomers of Compound 1 (Example 25b); assay type: in vivo, normal volunteers (human); details: 30 minutes p.i.; mean of three studies; human
Description: The following table gives the mean of three studies for each stereoisomer, of percentage of injected dose in normal volunteers at 30 minutes p.i.

[3] = Rat biodistribution of Tc-99m complexes from isolated stereoisomers (Example 24); details: for % id/organ, Blood / % id/organ, Brain / % id/organ, Heart / % id/organ, Liver: (a) diastereoisomers, rats, mean from 3 animals; for difference in brain uptake, dl-isomer versus meso-isomer: see Example 24
Description: (§1) 0.1 ml of the Tc-99m complex solution was administered by intravenous injection (lateral tail vein) to each of five or six rats (140-220 g). The injected dose was equivalent to approximately 1 mCi of Tc-99m. Three rats were sacrificed at 2 minutes post injection, and 3 at 1 hour or 2 at 2 hours post injection. At dissection, the organs and blood samples shown in the following table were taken, and assayed for radioactivity. The uptake in each organ or tissue was calculated as a percentage of the total activity recovered.
(§2) Data in Tables (a) and (b) are the mean from 3 animals at each time point.

[4] = Rat biodistribution of Tc-99m complexes of separated diastereoisomers of compound 1 (Example 23); assay type: in vivo, rats; details: for % id/organ, Blood / % id/organ, Brain / % id/organ, Liver: rats
Description: The experiment of Example 22 was repeated using the separated diastereoisomers of compound 1. The results are given in the Table below and should be compared to those for compound 1 (the mixture) in the Table in […].

[5] = rat, in vivo
Description: as §1, §2

[6] = Animal biodistribution of Tc-99m complexes of ligands, no separation of stereoisomers (Example 22); assay type: in vivo, rats; details: i.v. rats
Description: The ratio of diastereoisomers in the Tc-99m complexes used in this experiment is not known.
The results at 2 minutes and 1 hour p.i. are the mean of 3 animals.
The results at 2 hours p.i. are the mean of 2 animals.

CC(=NO)[C@H](C)NCC(C)(C)CN[C@@H](C)C(C)=NO (relative stereo) [Compound 1 d1, dl-4,8-Diaza-3,6,6,9-tetramethylundecane-2,10-dione bis oxime]
% injected activity, Bladder + Urine [1]: 2.28 % injected activity
% injected activity, Brain [1]: 4.22 % injected activity
% injected activity, Kidneys [1]: 3.50 % injected activity
% injected activity, Liver [1]: 10.22 % injected activity
percentage of injected dose, Brain [2]: 4.16 percentage of injected dose
percentage of injected dose, Kidney [2]: 3.03 percentage of injected dose
percentage of injected dose, Liver [2]: 10.73 percentage of injected dose
% id/organ, Blood ([3]; 2 mins pi): 11.0 % id/organ
% id/organ, Brain ([3]; 2 mins pi): 2.1 % id/organ
% id/organ, Heart ([3]; 2 mins pi): 1.2 % id/organ
% id/organ, Liver ([3]; 2 mins pi): 11.3 % id/organ
% id/organ, Blood ([3]; 1 hr pi): 8.6 % id/organ
% id/organ, Brain ([3]; 1 hr pi): 1.6 % id/organ
% id/organ, Heart ([3]; 1 hr pi): 0.7 % id/organ
% id/organ, Liver ([3]; 1 hr pi): 11.9 % id/organ
brain retention and brain imaging, dl-isomer versus meso-isomer ([3]; in words): surprisingly superior to the complex of the meso-isomer
% id/organ, Blood ([4]; 2 min p.i.): 11.42 % id/organ
% id/organ, Brain ([4]; 2 min p.i.): 1.99 % id/organ
% id/organ, Liver ([4]; 2 min p.i.): 9.42 % id/organ
% id/organ, Blood ([4]; 1 hour p.i.): 10.17 % id/organ
% id/organ, Brain ([4]; 1 hour p.i.): 1.90 % id/organ
% id/organ, Liver ([4]; 1 hour p.i.): 9.25 % id/organ
difference in brain uptake of the two isomers (factor) ([4]; dl versus meso, the better is the dl-isomer): 2.3

CC(=NO)[C@H](C)NCCCN[C@@H](C)C(C)=NO (relative stereo) [Compound 2 d1]
% id/organ, Blood ([3]; 2 mins pi): 10.5 % id/organ
% id/organ, Brain ([3]; 2 mins pi): 1.8 % id/organ
% id/organ, Heart ([3]; 2 mins pi): 1.1 % id/organ
% id/organ, Liver ([3]; 2 mins pi): 11.6 % id/organ
% id/organ, Blood ([3]; 1 hr pi): 7.8 % id/organ
% id/organ, Brain ([3]; 1 hr pi): 1.5 % id/organ
% id/organ, Heart ([3]; 1 hr pi): 0.7 % id/organ
% id/organ, Liver ([3]; 1 hr pi): 9.4 % id/organ
difference in brain uptake, dl-isomer versus meso-isomer ([3]; in words): do not show any marked difference in brain uptake

CC(=NO)C(C)NCC(C)CNC(C)C(C)=NO (stereo not shown) [Compound 1 1]
percentage of injected dose, Brain [2]: 4.30 percentage of injected dose
percentage of injected dose, Kidney [2]: 4.0 percentage of injected dose
percentage of injected dose, Liver [2]: 8.06 percentage of injected dose
% id/organ, Blood ([5]; 2 min): 11.0 % id/organ
% id/organ, Brain ([5]; 2 min): 2.6 % id/organ
% id/organ, Liver ([5]; 2 min): 9.6 % id/organ
% id/organ, Blood ([5]; 60 min): 11.1 % id/organ
% id/organ, Brain ([5]; 60 min): 2.2 % id/organ
% id/organ, Liver ([5]; 60 min): 7.7 % id/organ

CC(=NO)[C@H](C)NCC(C)(C)CN[C@H](C)C(C)=NO [Compound 1 meso, meso-4,8-Diaza-3,6,6,9-tetramethylundecane-2,10-dione bis oxime]
% injected activity, Bladder + Urine [1]: 0.6 % injected activity
% injected activity, Brain [1]: 1.85 % injected activity
% injected activity, Kidneys [1]: 1.3 % injected activity
% injected activity, Liver [1]: 16.6 % injected activity
% id/organ, Blood ([3]; 2 mins pi): 5.0 % id/organ
% id/organ, Brain ([3]; 2 mins pi): 1.1 % id/organ
% id/organ, Heart ([3]; 2 mins pi): 0.6 % id/organ
% id/organ, Liver ([3]; 2 mins pi): 19.9 % id/organ
% id/organ, Blood ([3]; 1 hr pi): 3.1 % id/organ
% id/organ, Brain ([3]; 1 hr pi): 0.7 % id/organ
% id/organ, Heart ([3]; 1 hr pi): 0.2 % id/organ
% id/organ, Liver ([3]; 1 hr pi): 23.7 % id/organ
% id/organ, Blood ([4]; 2 min p.i.): 5.33 % id/organ
% id/organ, Brain ([4]; 2 min p.i.): 0.78 % id/organ
% id/organ, Liver ([4]; 2 min p.i.): 26.86 % id/organ
% id/organ, Blood ([4]; 1 hour p.i.): 3.17 % id/organ
% id/organ, Brain ([4]; 1 hour p.i.): 0.53 % id/organ
% id/organ, Liver ([4]; 1 hour p.i.): 24.24 % id/organ

CC(=NO)[C@H](C)NCCCN[C@H](C)C(C)=NO [Compound 2 meso]
% id/organ, Blood ([3]; 2 mins pi): 6.9 % id/organ
% id/organ, Brain ([3]; 2 mins pi): 1.7 % id/organ
% id/organ, Heart ([3]; 2 mins pi): 0.6 % id/organ
% id/organ, Liver ([3]; 2 mins pi): 17.9 % id/organ
% id/organ, Blood ([3]; 1 hr pi): 2.8 % id/organ
% id/organ, Brain ([3]; 1 hr pi): 1.4 % id/organ
% id/organ, Heart ([3]; 1 hr pi): 0.2 % id/organ
% id/organ, Liver ([3]; 1 hr pi): 20.7 % id/organ
difference in brain uptake, dl-isomer versus meso-isomer ([3]; in words): do not show any marked difference in brain uptake

CCC(NCCCNC(CC)C(C)=NO)C(C)=NO (stereo not shown) [Compound 3, 4,8-Diaza-3,9-diethylundecane-2,10-dione bis oxime]
% id/organ, Blood ([6]; 2 min pi, mean of 3 animals): 6.8 % id/organ
% id/organ, Brain ([6]; 2 min pi, mean of 3 animals): 1.1 % id/organ
% id/organ, Heart ([6]; 2 min pi, mean of 3 animals): 0.2 % id/organ
% id/organ, Liver ([6]; 2 min pi, mean of 3 animals): 27.8 % id/organ
% id/organ, Blood ([6]; 2 hr pi, mean of 2 animals): 2.1 % id/organ
% id/organ, Brain ([6]; 2 hr pi, mean of 2 animals): 0.7 % id/organ
% id/organ, Heart ([6]; 2 hr pi, mean of 2 animals): 0.1 % id/organ
% id/organ, Liver ([6]; 2 hr pi, mean of 2 animals): 17.0 % id/organ

CCC(=NO)C(C)NCCCNC(C)C(CC)=NO (stereo not shown) [Compound 4, 5,9-Diaza-4,10-dimethyltridecane-3,11-dione bis oxime]
% id/organ, Blood ([6]; 2 min pi, mean of 3 animals): 13.4 % id/organ
% id/organ, Brain ([6]; 2 min pi, mean of 3 animals): 1.6 % id/organ
% id/organ, Liver ([6]; 2 min pi, mean of 3 animals): 15.6 % id/organ
% id/organ, Blood ([6]; 1 hr pi, mean of 3 animals): 5.7 % id/organ
% id/organ, Brain ([6]; 1 hr pi, mean of 3 animals): 1.5 % id/organ
% id/organ, Liver ([6]; 1 hr pi, mean of 3 animals): 12.7 % id/organ
